Laboratory results from patent US6656911B2, “Serine protease inhibitors” (Cortech, Inc., priority 1994, dated 2003).

Target: T1, elastase derived from human sputum (HSE) (Homo sapiens, UniProt P08246)
T1 construct: prepared from commercially available HSE (875 U/mg protein, SE-563, Elastin Product Co., Inc., Missouri, USA); purchased Elastin Product Co., Inc., Missouri, USA SE-563; host or cells: human sputum (natural enzyme)
T1 sequence (P08246 30-247 limits assumed): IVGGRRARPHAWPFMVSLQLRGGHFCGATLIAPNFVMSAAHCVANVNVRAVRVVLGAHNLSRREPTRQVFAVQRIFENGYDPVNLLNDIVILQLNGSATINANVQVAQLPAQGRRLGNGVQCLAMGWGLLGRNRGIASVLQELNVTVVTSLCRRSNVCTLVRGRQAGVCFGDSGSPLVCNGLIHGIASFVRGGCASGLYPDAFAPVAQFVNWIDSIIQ
Assay: In vitro inhibition of elastase (ONO-PO series)
Format: biochemical
Conditions: substrate N-methoxysuccinyl-Ala-Ala-Pro-Val-p-nitroaniline, 37° C., pH 8.0, IC50 converted to Ki by Dixson plot

SMILES	Ki
CC(C)[C@H](NC(=O)Cn1c(-c2ccccc2)cccc1=O)C(=O)c1nnc(C(C)(C)C)o1 [ONO-PO-725, 2-[6-Oxo-2-phenyl-1,6-dihydro-1-pyridinyl]-N-[1-(2-[5-tert-butyl-1,3,4-oxadiazolyl]carbonyl)-2-(S)-methylpropyl]acetamide]	4280 nM
CC(C)[C@H](NC(=O)Cn1c(-c2ccccc2)nccc1=O)C(=O)c1nnc(C(C)(C)c2ccccc2)o1 [ONO-PO-731, 2-[6-Oxo-2-phenyl-1,6-dihydro-1-pyrimidinyl]-N-[1-(2-[5-α,α-dimethylbenzyl-1,3,4-oxadiazolyl]carbonyl)-2-(S)-methylpropyl]acetamide]	4.02 nM
CC(C)C[C@@H]1NC(=O)N(CC(=O)N[C@H](C(=O)c2nnc(C(C)(C)c3ccccc3)o2)C(C)C)C1=O [ONO-PO-709, 4-(S)-(2-Isobutyl)-2,5-imidazolidinedione-N-[1-(2-[5-(α,α-dimethylbenzyl)-1,3,4-oxadiazolyl]carbonyl)-2-(S)-methylpropyl]acetamide]	25.7 nM
CC(C)[C@H](NC(=O)CN1C(=O)N[C@H](C(C)C)C1=O)C(=O)c1nnc(C(C)(C)C)o1 [ONO-PO-719, 4-(R)-Isopropyl-2,5-imidazolidinedione-N-[1-(2-[5-tert-butyl-1,3,4-oxadiazolyl]carbonyl)-2-(S)-methylpropyl]acetamide]	836 nM
